Values quoted from earlier work in paper PMC10033663, “Acute pharmacological profile of 2C-B-Fly-NBOMe in male Wistar rats—pharmacokinetics, effects on behaviour and thermoregulation” (Frontiers in Pharmacology, 2023).
Read-outs that look alike come from different tables or passages of the source.

Assays:
[1] = design: method as in ref Šíchová et al., 2022; settings: compared with 2C-B-Fly-NBOMe; ref Šíchová et al., 2022; cited from earlier work
[2] = design: method as in ref Šíchová et al., 2022; settings: ref Šíchová et al., 2022; cited from earlier work
[3] = design: method as in ref Šíchová et al., 2022; settings: 5 mg/kg; individually-housed animals; ref Šíchová et al., 2022; cited from earlier work
[4] = design: method as in ref Šíchová et al., 2022; settings: 5 mg/kg, ref Šíchová et al., 2022, cited from earlier work
[5] = design: method as in Gatch et al., 2017; Wojtas et al., 2021; settings: administered i. p.; ref Gatch et al., 2017; Wojtas et al., 2021; cited from earlier work
rats [6] = test system: rats; design: method as in Nakamura et al., 2018; settings: 0.25 intraperitoneally (i. p.), ambient temperature 29°C, ref Nakamura et al., 2018; cited from earlier work
mice = test system: mice; design: method as in Halberstadt, 2017; settings: ref Halberstadt, 2017, cited from earlier work; for locomotion: mice
rats [7] = settings: 0.5 mg/kg i. p.; female and male rats; ref Miliano et al. (2019); cited from earlier work
rats [8] = test system: rats; design: method as in Miliano et al. (2019); settings: ref Miliano et al. (2019), cited from earlier work
rats [9] = test system: rats; design: method as in Halberstadt and Geyer, 2017; settings: ref Halberstadt and Geyer, 2017; cited from earlier work
[10] = design: method as in ref Adams and Geyer, 1982; Páleníček et al., 2013; Páleníček et al., 2008; settings: ref Adams and Geyer, 1982, Páleníček et al., 2013, 2008; cited from earlier work
[11] = 50 mg/kg s. c., ref Rohanová et al., 2008, cited from earlier work
[12] = rat blood serum; 1 mg/kg, peroral administration; ref Baralla et al. (2019); cited from earlier work

Structure (SMILES): COc1cc(CCNCc2ccccc2OC)c(OC)cc1C#N [25CN-NBOMe]
- locomotion [1]: similar, yet less pronounced decrease in locomotion
- PPI [2]: affected PPI only in the highest dose of 5 mg/kg in the 15 min onset
- body temperature [3]: significant hypothermic effect
- half-life ([4]; blood serum): 1.88 h
- half-life ([4]; brain tissue): 2.28 h

Structure (SMILES): COc1cc(CCNCc2ccccc2OC)c(OC)cc1Br [25B-NBOMe]
- locomotor activity [5]: dose-dependent decrease in locomotor activity
- body temperature (rats [6]): hyperthermia, but only in higher ambient temperature

Structure (SMILES): COc1cc(CCNCc2ccccc2OC)c(OC)cc1I [25I-NBOMe, 2-(4-iodo-2,5-dimethoxyphenyl)-N-[(2-methoxyphenyl)methyl]ethanamine]
- locomotion (mice; 0.1 mg/kg s. c., 60 min temporal onset): significant hyperlocomotion
- locomotion (mice; 3 mg/kg s. c.): hypolocomotion
- biphasic effect on locomotion by route (mice; s. c. versus i. p.): induced a biphasic effect after s. c. application, but interestingly not after i. p. injection
- locomotor activity [5]: dose-dependent decrease in locomotor activity
- body temperature (rats [7]): induced hyperthermia within 35–65 min in female rats, but not in males
- ASR (rats [8]; highest dose (1 mg/kg i. p.)): significant decrease of ASR
- PPI (rats [8]): dose-dependent inhibition of PPI

Structure (SMILES): COc1cc(CCNCc2ccccc2OC)c(OC)cc1Cl [25C-NBOMe]
- locomotor activity [5]: dose-dependent decrease in locomotor activity

Structure (SMILES): COc1cc(CCNCc2ccccc2O)c(OC)cc1C#N [25CN-NBOH]
- PPI (rats [9]): tendencies to disrupt PPI

Structure (SMILES): COc1cc(CCN)cc(OC)c1OC [mescaline]
- biphasic effect (low and high doses, temporal onsets) [10]: biphasic effect

Structure (SMILES): COc1cc(CCN)c(OC)cc1Br [2C-B, 4-Bromo-2,5-dimethoxyphenethylamine]
- biphasic effect (low and high doses, temporal onsets) [10]: biphasic effect
- time for which presence was detectable ([11]; all collected tissues): up to 5 h
- time of peak concentration ([11]; blood serum): ≤ 30 min
- time of peak concentration ([11]; brain, liver, and lung tissue): ≤ 60 min

Structure (SMILES): CCN(CC)C(=O)[C@@H]1C=C2c3cccc4[nH]cc(c34)C[C@H]2N(C)C1 [LSD, lysergic acid diethylamide]
- biphasic effect (low and high doses, temporal onsets) [10]: biphasic effect

Structure (SMILES): CC(N)Cc1c2c(cc3c1OCC3)OCC2 (stereo not drawn) [FLY, 1-(2,3,6,7-tetra-hydrofuro [2,3-f][1]benzofuran-4-yl)propan-2-amine]
- time of peak concentration [12]: 30 min

Structure (SMILES): NCCc1c2c(cc3c1OCC3)OCC2 [2C-FLY, 2-(2,3,6,7-tetrahydrofuro [2,3-f][1]benzofuran-4-yl)ethanamine]
- time of peak concentration [12]: 60 min
